In ChEMBL document CHEMBL5726647, “Isoquinoline derivatives useful as inhibitors of diacylglyceride O-acyltransferase 2” (2017) one finds IC50 data, which are given here for seven compounds.

The term pIC50 denotes the negative decadic logarithm of the IC50, by convention in mol/L.

pIC50: −log10 of the molar value.

In the test the target is T1, Diacylglycerol O-acyltransferase 2 (Homo sapiens, UniProt Q96PD7).
T1 sequence (Q96PD7 whole entry): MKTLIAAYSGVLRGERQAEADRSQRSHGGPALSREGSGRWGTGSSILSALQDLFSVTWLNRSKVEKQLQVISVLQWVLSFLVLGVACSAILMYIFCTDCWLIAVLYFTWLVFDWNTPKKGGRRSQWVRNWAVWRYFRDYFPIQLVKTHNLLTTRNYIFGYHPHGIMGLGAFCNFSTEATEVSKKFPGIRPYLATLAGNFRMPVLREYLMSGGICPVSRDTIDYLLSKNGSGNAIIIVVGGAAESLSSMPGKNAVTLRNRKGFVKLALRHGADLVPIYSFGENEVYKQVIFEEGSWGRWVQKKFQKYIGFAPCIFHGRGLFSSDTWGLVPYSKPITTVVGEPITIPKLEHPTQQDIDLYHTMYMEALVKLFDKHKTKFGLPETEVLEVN
Briefly: Enzymatic Activity Assay: DGAT2 activity was determined by measuring the amount of enzymatic product triolein (1,2,3-Tri(cis-9-octadecenoyl)glycerol) using the membrane prep mentioned above.The assay was carried out in deep well 384 plates in a final volume of 40 μL at room temperature. The assay mixture contained the following: assay buffer (100 mM Tris.Cl, pH 7.0, 20 mM MgCl2, 5% ethanol), 25 μM of diolein, 10 μM of oleoyl-CoA and 10 ng/μL of DGAT2 membrane.

In the case of `COC(=O)c1cccc(-c2ccc(CNC(=O)Nc3cccc(Cl)c3Cl)c3cnccc23)c1`, the pIC50 is 5.71.
In the case of `COc1cccc(-c2ccc(CNC(=O)Cc3ccccc3Cl)c3cnccc23)c1`, the pIC50 is 5.70.
For `COc1cccc(-c2ccc(CNC(=O)c3ccccc3CN3C=C(O)ON3)c3cnccc23)c1`, the pIC50 was 5.38.
Take `COc1cccc(-c2ccc(CNC(=O)c3ncc(Br)cn3)c3cnccc23)c1`: the pIC50 is 5.47.
For the compound `CCOC(=O)CCc1ccc(CNC(=O)Nc2cccc(Cl)c2Cl)c2cnccc12`, the pIC50 is 5.12.
The same measure for `COc1cccc(-c2ccc(CNC(=O)Nc3cccc(Cl)c3Cl)c3ncccc23)c1`: 5.04; for `COc1cccc(-c2ccc(CNC(=O)Cc3cncc(Br)c3)c3cnccc23)c1`: 5.15.
